What follows are compounds tested against T1, rat GABA-A receptor (alpha1, beta2, gamma2L) (Rattus norvegicus, UniProt P18508+P62813+P63138, INS375LLRMFSFK) (assay: Chloride flux (current) in recombinant GABA-A receptors expressed in Xenopus laevis oocytes, voltage clamp). Details: chloride flux induced by GABA alone.
T1 construct: expressed in transfected cells; host or cells: Xenopus laevis oocytes (mRNA injection)
Assay type: cell-based
Source text: Studies of Chloride Flux in Recombinant GABA-A Receptors (Alpha1, Beta2, Gama2L) Expressed in Xenopus laevis Oocytes Using Voltage Clamp Methods.
The GABA-A receptor used to test the steroids in the present invention was recombinantly expressed in oocytes of Xenopus laevis. The oocytes have a large capacity to express proteins for the surface membrane from mRNA injected into the oocyte. The receptor contains five proteins of three different types and the mRNA for the receptor subtypes alpha1, beta2, gamma2L were expressed in the present test situation. These subtypes of the GABA-A receptor are the most common in the central nervous system. These GABA-A receptors contain two alpha1 proteins, two beta2 and one gamma protein. After 48 hours of incubation the GABA-A receptors are mounted in the membrane and behave in vitro in a similar way as the receptor in situ. Therefore this model system is considered by persons skilled in art to be a good in vitro test system for GABA-A receptor active drugs. The flux of chloride through the chloride channel is a result of GABA activity on the GABA-A receptor and GABA-A receptor modulators like the 3alpha-hydroxy-5alpha/beta-pregnan-steroids can enhance the effectiveness of GABA. The flux of chloride through the receptor is measured as the current induced by the flux with a voltage clamp technique. Dose response curves of the agonists and antagonists can be developed and the current is dependent of the GABA-A receptor activation obtained after the interaction between different dosages of agonists and antagonists. By normalizing the data against a precise current, in the present study 2 μA, the results from different oocytes can be compared and by normalizing the current change against a specific dose, here 10 μM, the different test substances can be compared. The 3alpha-hydroxy-5alpha-pregnan-20-one induced enhancement of GABA mediated chloride flux was set to 1 and obtained by superfusing the GABA-A receptor expressing oocytes with 3 μM GABA+3 μM 3alpha-hydroxy-5alpha-pregnan-20-one in an in vitro bath. The chloride flux was measured as the current induced by the flux of chloride through the GABA-A receptors. The GABA induced chloride flux was set to 1 and obtained by superfusing the GABA-A receptor expressing oocytes in vitro with 30 μM GABA. The inhibiting effect on 3alpha-hydroxy-5alpha-pregnan-20-one induced enhancement of GABA mediated chloride flux by the tested UC-steroids is compared to the inhibiting effect of the same UC-steroids on GABA activation of the GABA-A receptor. In FIG. 1 are the UC-steroids with low GABA antagonism highlighted with an X while the UC-steroids with partial GABA antagonism are highlighted with a black dot ([…]).
On the figure the result are normalized to the control currents activated by 30 µM GABA or 3 μM GABA+3 μM 3alpha-hydroxy-5alpha-pregnan-20-one. The control current in the absence of steroid antagonists is normalized to […]. Each steroid antagonist is tested at 10 μM. […] The black dot ([…]) highlights the steroid antagonist that inhibits both direct GABA-response (30 μM) and 3alpha-hydroxy-5alpha-pregnan-20-one enhanced GABA response. The labels of the data points are marked with product numbers, whereas the numbering of different substances full name is shown in Table 2 and Table 3.
The studies on 3alpha-hydroxy-5alpha-pregnan-20-one inhibition were made in the presence of 3 μM GABA+3 μM 3alpha-hydroxy-5alpha-pregnan-20-one. […] Number of cells recorded n=3-10. […]

T1 sequence (P62813 28-455, stated change not applied): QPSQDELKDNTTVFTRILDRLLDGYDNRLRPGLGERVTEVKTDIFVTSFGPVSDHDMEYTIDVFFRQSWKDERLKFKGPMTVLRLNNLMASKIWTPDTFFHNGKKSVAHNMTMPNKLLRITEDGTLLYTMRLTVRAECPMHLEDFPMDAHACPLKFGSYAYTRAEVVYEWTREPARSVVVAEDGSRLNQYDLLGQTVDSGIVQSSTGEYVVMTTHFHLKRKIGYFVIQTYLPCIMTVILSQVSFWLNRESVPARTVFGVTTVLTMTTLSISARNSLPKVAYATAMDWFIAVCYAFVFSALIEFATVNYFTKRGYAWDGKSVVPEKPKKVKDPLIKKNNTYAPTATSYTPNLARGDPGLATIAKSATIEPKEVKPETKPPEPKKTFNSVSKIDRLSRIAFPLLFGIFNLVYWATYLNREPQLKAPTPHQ
T1 sequence (P63138 26-474, stated change not applied): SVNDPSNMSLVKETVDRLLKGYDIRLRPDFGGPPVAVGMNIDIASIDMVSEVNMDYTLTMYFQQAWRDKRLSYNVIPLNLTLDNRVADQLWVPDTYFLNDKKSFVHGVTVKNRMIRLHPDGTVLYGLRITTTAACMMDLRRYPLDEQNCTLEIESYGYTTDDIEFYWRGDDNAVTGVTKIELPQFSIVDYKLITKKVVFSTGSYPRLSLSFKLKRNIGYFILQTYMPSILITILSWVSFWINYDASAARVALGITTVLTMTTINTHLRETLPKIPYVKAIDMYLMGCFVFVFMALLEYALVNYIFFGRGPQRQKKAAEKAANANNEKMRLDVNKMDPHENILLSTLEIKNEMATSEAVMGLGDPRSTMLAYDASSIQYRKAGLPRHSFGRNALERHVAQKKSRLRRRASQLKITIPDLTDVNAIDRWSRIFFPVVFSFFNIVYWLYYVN
T1 sequence (P18508 with tags, fused parts or gaps INS375LLRMFSFK): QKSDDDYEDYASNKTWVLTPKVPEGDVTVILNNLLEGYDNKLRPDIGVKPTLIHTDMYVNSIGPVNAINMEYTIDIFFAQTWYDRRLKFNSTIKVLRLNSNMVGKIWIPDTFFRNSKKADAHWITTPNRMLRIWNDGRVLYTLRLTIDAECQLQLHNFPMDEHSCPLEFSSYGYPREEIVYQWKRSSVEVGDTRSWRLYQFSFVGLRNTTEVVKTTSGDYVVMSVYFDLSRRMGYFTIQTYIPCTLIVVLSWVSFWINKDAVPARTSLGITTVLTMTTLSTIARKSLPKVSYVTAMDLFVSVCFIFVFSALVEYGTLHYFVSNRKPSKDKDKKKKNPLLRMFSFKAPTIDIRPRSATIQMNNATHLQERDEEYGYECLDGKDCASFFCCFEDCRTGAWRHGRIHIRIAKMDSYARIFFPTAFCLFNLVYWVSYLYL

**Q.** With `CC(O)C1CCC2C3CCC4CC(O)CCC4(C)C3CCC12C` (stereo not drawn) [UC1011, 5alpha-PREGNAN-3beta, 20beta-DIOL] as the compound, how does the “antagonism against GABA itself (in words)” value (“antagonism” for short) read?
**A.** low antagonism against GABA it self

**Q.** With `CC(=O)O[C@H]1CC[C@@]2(C)[C@@H](CC[C@@H]3[C@@H]2CC[C@]2(C)[C@@H](C(C)=O)CC[C@@H]32)C1` [UC1012, 5alpha-PREGNAN-3beta-OL-20-ONE ACETATE] as the compound, how does the “antagonism” value read?
**A.** partial antagonism against the GABA effect

**Q.** `C[C@@H](O)[C@H]1CC[C@H]2[C@@H]3CC[C@@H]4C[C@@H](O)CC[C@]4(C)[C@H]3CC[C@]12C` [UC1013, 5beta-PREGNAN-3beta, 20alpha-DIOL] was tested. Which “antagonism” value did it give?
**A.** low antagonism against GABA it self

**Q.** `CC(=O)[C@H]1CC[C@H]2[C@@H]3CC[C@@H]4C[C@@H](O)CC[C@]4(C)[C@H]3CC[C@]12C` [UC1014, 5beta- PREGNAN-3beta-OL-20-ONE] was tested. Which “antagonism” value did it give?
**A.** partial antagonism against the GABA effect

**Q.** `C[C@]12CC[C@H](O)C[C@H]1CC[C@@H]1[C@@H]2CC[C@]2(C)[C@@H](C(=O)CO)CC[C@@H]12` [UC1015, 5beta-PREGNAN-3beta, 21-DIOL-20-ONE] was tested. Which “antagonism” value did it give?
**A.** partial antagonism against the GABA effect

Source: patent US20120142657A1, “GABA-STEROID ANTAGONISTS AND THEIR USE FOR THE TREATMENT OF CNS DISORDERS” (UMECRINE AB, priority 2004, published 2012)
